Measurements as given in US20230062911A1, “COMPOSITIONS AND METHODS FOR TREATING, PREVENTING, AND/OR AMELIORATING CHEMOTHERAPY-INDUCED PREMATURE OVARIAN FAILURE (POF)” (Rutgers, The State University of New Jersey, priority 2021, published 2023).
“Also recorded” adds a separate entry of the source. Each block holds one molecule with its values, some of them ahead of it.

Legend:
[1] = test system: TAp63α; test: Phosphorylation of TAp63α in ovaries, immunostaining and western blot; assay type: in vivo, CD-1 female mice
Protocol: (§1) FIG. 2B provides a western blot showing expression of γH2AX and pTAp63α at 3 h and 6 h. The mobility shift of TAp63α indicated phosphorylation (i.e., p-TAp63α), which further indicated cell death initiation through apoptosis.
TAp63a functions to respond to DNA damage that results in its phosphorylation and subsequent oocyte apoptosis initiation in the primordial follicles.
(§2) Next, 5-day-old CD-1 female mice were intraperitoneally injected with 10 mg/kg DOX and 50 mg/kg SP600125, a specific JNK inhibitor.

[2] = test system: Bax, Puma, Noxa; test: qRT-PCR of apoptosis mediators in whole neonatal ovaries; assay type: in vivo, CD-1 female mice; details: co-treatment with DOX
Protocol: as §2

[3] = test system: primordial follicles; test: DOX-induced primordial follicle loss in 5-day-old mice; assay type: in vivo, CD-1 female mice; details: co-treatment SP600125 50 mg/kg with DOX 10 mg/kg i.p.
Protocol: as §2

[4] = test system: ovarian follicles; test: Follicle counting 6 weeks after treatment of 21-day-old mice; assay type: in vivo, CD-1 female mice
Description: Ovarian functions were examined at 6-weeks after treatment in order to evaluate the long-term effect of pharmacological JNK inhibition on female ovarian reserve and other ovary reproductive outcomes.

[5] = test system: CD-1 female mice; test: Ovarian cyclicity by vaginal smear in 21-day-old treated mice; assay type: in vivo; details: 21-day-old mice, last 14 days of 6 weeks post treatment
Description: The transition of various estrous cycle stages of three representative mice (a total of 6-8 mice in each group) are shown for each treatment group, including proestrus, estrus, metestrus, and diestrus.
Ovarian cyclicity was next examined by the method of vaginal smear in the last 14 days of the 6-week post DOX / SP600125 treatment.

[6] = test system: γ-H2AX; test: Ovarian expression of γ-H2AX (DNA damage marker) after DOX, immunostaining and western blot; assay type: in vivo
Protocol: as §1
Expression of γ-H2AX, a well-characterized biomarker of DNA double strand breaks (DDSBs) as well as the major mechanism of DOX’s cytotoxicity on tumorous cells, was detected with administration of DOX.

[7] = test system: JNK (c-Jun N-terminal kinase) signaling pathway; test: RNA sequencing / Gene Ontology analysis of ovaries after DOX; assay type: in vivo, CD-1 female mice; details: 5-day-old mice, DOX 10 mg/kg i.p., ovaries at 6 hours
Protocol: Thus, the molecular mechanisms of DOX-induced primordial follicle oocyte apoptosis were investigated as described herein. Fiveday-old CD-1 female mice were intraperitoneally injected with vehicle or 10 mg/kg DOX and ovaries were harvested at 6 hours for RNA sequencing.

[8] = test system: JNK; test: Phosphorylation of JNK in oocytes of primordial follicles, western blot and immunostaining; assay type: in vivo, CD-1 female mice; details: for activation of JNK in the oocytes of primordial follicles: general statement, no dose given

numbers of all staged follicles ([4]; SP600125 alone): did not affect
SMILES: O=C1c2ccccc2-c2n[nH]c3cccc1c23 [SP600125, dibenzo[cd,g]indazol-6(2H)-one]
effect on DOX-induced hyper-phosphorylation of TAp63α ([1]; 5-day-old mice, SP600125 50 mg/kg i.p. with DOX 10 mg/kg i.p., western blot): effectively prevented; also recorded: blocked the phosphorylation | effect on cisplatin-induced phosphorylation of TAp63α ([1]; 5-day-old mouse ovaries, SP600125 50 mg/kg i.p. with cisplatin 20 mg/kg i.p.): blocked the phosphorylation | effect on DOX-induced transcriptional induction of Bax [2]: prevented the transcriptional induction | effect on DOX-induced transcriptional induction of Noxa [2]: prevented the transcriptional induction | effect on DOX-induced transcriptional induction of Puma [2]: prevented the transcriptional induction | effect on DOX-induced primordial follicle loss [3]: significantly ameliorated; also recorded: prevented DOX-induced primordial follicle loss | effect on DOX-induced reduction of all stages of follicles ([4]; co-treatment with DOX): effectively prevented the reduction | ovarian cyclicity (estrous cycle stages) ([5]; DOX / SP600125 co-treatment): comparable ovarian cyclicity to the control group | ovarian cyclicity (estrous cycle stages) ([5]; SP600125 alone): comparable ovarian cyclicity to the control group

numbers of all stages of ovarian follicles (primordial, primary, secondary, antral) ([4]; DOX alone): remarkably reduced | ovarian cyclicity (estrous cycle stages) ([5]; DOX alone): interfered with mouse ovarian cyclicity
SMILES: COc1cccc2c1C(=O)c1c(O)c3c(c(O)c1C2=O)C[C@@](O)(C(=O)CO)C[C@@H]3O[C@H]1C[C@H](N)[C@@H](O)[C@H](C)O1 [DOX, (8S,10S)-10-(((2R,4S,5R,6S)-4-amino-5-hydroxy-6-methyltetrahydro-2H-pyran-2-yl)oxy)-6,8,11-trihydroxy-8-(2-hydroxyacetyl)-1-methoxy-7,8,9,10-tetrahydrotetracene-5,12-dione]
expression of γ-H2AX in ovarian epithelial cells and oocytes ([6]; DOX 10 mg/kg i.p., 6 h): significantly increased | time at which increased γ-H2AX expression peaked ([6]; after DOX treatment, western blot): 6 h | phosphorylation of TAp63a in ovaries ([1]; 6 h after DOX treatment, western blot): hyper-phosphorylated | expression of phospho-p63 in oocytes of primordial follicles ([1]; 6 h post DOX treatment, immunostaining): significantly induced | JNK signaling pathway by RNA sequencing Gene Ontology analysis [7]: significantly changed; also recorded: activated | phosphorylation of JNK in the oocytes of primordial follicles ([8]; 5-day-old mice, DOX 10 mg/kg i.p., 6 h): selectively increased; also recorded: selective hyper-phosphorylation | activation of JNK in the oocytes of primordial follicles [8]: selectively activate

SMILES: N.N.[Cl][Pt][Cl] [cisplatin, cis-diammineplatinum (II) dichloride]
activation of JNK in the oocytes of primordial follicles [8]: selectively activate
